# Laboratory results reported in PubChem BioAssay AID330 (DTP/NCI, 2004).
# Values joined by “and” are separate entries in the source; they are usually repeats but may differ in a detail not shown here. Equal values may be shown once. Inconclusive results and toxic doses are left out.
# Tested on: P388 leukemia ip, CD2F1 mice, survival T/C
# Assay: NCI In Vivo Anticancer Drug Screen. Data for tumor model P388 Leukemia (intraperitoneal) in CD2F1 (CDF1) mice
# Details: endpoint: median survival time, higher = longer survival
# Summary of the method: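 Mice carrying the transplanted tumor received test compound or vehicle. Survival was recorded in each group, and the value is the treated-group measurement divided by that of the vehicle-treated control group.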
# [1] = dose: 50.0 mg/kg/injection, schedule: Q01DX009 (ip), vehicle: Klucel (hydroxypropylcellulose) (HPC)
# [2] = dose: 100.0 mg/kg/injection, schedule: Q01DX009 (ip), vehicle: Klucel (hydroxypropylcellulose) (HPC)
# [3] = dose: 200.0 mg/kg/injection, schedule: Q01DX009 (ip), vehicle: Klucel (hydroxypropylcellulose) (HPC)
# [4] = dose: 12.5 mg/kg/injection, schedule: Q01DX005 (ip), vehicle: Klucel (hydroxypropylcellulose) (HPC)
# [5] = dose: 25.0 mg/kg/injection, schedule: Q01DX005 (ip), vehicle: Klucel (hydroxypropylcellulose) (HPC)
# [6] = dose: 25.0 mg/kg/injection, schedule: Q01DX009 (ip), vehicle: saline with Tween-80
# [7] = dose: 50.0 mg/kg/injection, schedule: Q01DX005 (ip), vehicle: Klucel (hydroxypropylcellulose) (HPC)
# [8] = dose: 50.0 mg/kg/injection, schedule: Q01DX005 (ip), vehicle: saline with Tween-80
# [9] = dose: 50.0 mg/kg/injection, schedule: Q01DX009 (ip), vehicle: saline with Tween-80
# [10] = dose: 100.0 mg/kg/injection, schedule: Q01DX005 (ip), vehicle: Klucel (hydroxypropylcellulose) (HPC)
# [11] = dose: 100.0 mg/kg/injection, schedule: Q01DX005 (ip), vehicle: saline with Tween-80
# [12] = dose: 100.0 mg/kg/injection, schedule: Q01DX009 (ip), vehicle: saline with Tween-80
# [13] = dose: 200.0 mg/kg/injection, schedule: Q01DX005 (ip), vehicle: Klucel (hydroxypropylcellulose) (HPC)
# [14] = dose: 200.0 mg/kg/injection, schedule: Q01DX009 (ip), vehicle: saline with Tween-80
# [15] = dose: 200.0 mg/kg/injection, schedule: Q01DX005 (ip), vehicle: saline with Tween-80
smiles,measurement,setting,value
CC1Oc2cc3c(-c4c(O)cc(O)c5c(O)c6c(cc45)OC(C)C(C)C6=O)c(O)cc(O)c3c(O)c2C(=O)C1C (stereo not drawn),T/C,"dose: 1.25 mg/kg/injection, schedule: Q01DX005 (ip), vehicle: saline",101 % of control
same,T/C,"dose: 1.25 mg/kg/injection, schedule: Q01DX005 (ip), vehicle: suspension in saline",100 % of control
same,T/C,"dose: 2.5 mg/kg/injection, schedule: Q01DX005 (ip), vehicle: saline",100 % of control
same,T/C,"dose: 2.5 mg/kg/injection, schedule: Q01DX005 (ip), vehicle: suspension in saline",95 % of control
same,T/C,"dose: 5.0 mg/kg/injection, schedule: Q01DX005 (ip), vehicle: suspension in saline",121 % of control
same,T/C,"dose: 10.0 mg/kg/injection, schedule: Q01DX005 (ip), vehicle: suspension in saline",116 % of control
same,T/C,"dose: 20.0 mg/kg/injection, schedule: Q01DX005 (ip), vehicle: suspension in saline",110 % of control
Cn1ncc(N)nc1=S,T/C,"dose: 50.0 mg/kg/injection, schedule: Q01DX005 (ip), vehicle: suspension in saline",101 % of control
same,T/C,"dose: 100.0 mg/kg/injection, schedule: Q01DX005 (ip), vehicle: suspension in saline",97 % of control
same,T/C,"dose: 200.0 mg/kg/injection, schedule: Q01DX005 (ip), vehicle: suspension in saline",105 % of control
NS(=O)(=O)c1ccc(NC(=O)CN(C(=O)C(F)(F)F)C2CCCC2)cc1,T/C,[1],113 % of control
same,T/C,[2],109 % of control
same,T/C,[3],109 % of control
CN(C)/N=N/c1nc[nH]c1C(N)=O,T/C,[4],95 % of control
same,T/C,[5],105 % of control
same,T/C,[6],123 % of control
same,T/C,[7],105 % of control
same,T/C,[8],106 % of control
same,T/C,[9],120 % of control
same,T/C,[10],115 % of control
same,T/C,[11],119 % of control
same,T/C,[12],120 % of control
same,T/C,"dose: 150.0 mg/kg/injection, schedule: Q01DX005 (ip), vehicle: distilled water + Tween-80",166 % of control
same,T/C,[13],122 % of control
same,T/C,[14],103 % of control
same,T/C,"dose: 300.0 mg/kg/injection, schedule: Q01DX005 (ip), vehicle: distilled water + Tween-80",156 % of control
same,T/C,"dose: 400.0 mg/kg/injection, schedule: Q01DX005 (ip), vehicle: saline with Tween-80",121 % of control
same,T/C,"dose: 400.0 mg/kg/injection, schedule: Q01DX009 (ip), vehicle: saline with Tween-80",86 % of control
Nc1ncnc2c1ccn2Cc1c(F)cccc1Cl,T/C,"dose: 50.0 mg/kg/injection, schedule: Q01DX005 (ip), vehicle: distilled water + alcohol",100 % of control
same,T/C,"dose: 100.0 mg/kg/injection, schedule: Q01DX005 (ip), vehicle: distilled water + alcohol",101 % of control
same,T/C,"dose: 200.0 mg/kg/injection, schedule: Q01DX005 (ip), vehicle: distilled water + alcohol",105 % of control
C=CCN(NC(=O)c1ccccc1)C(=O)c1ccccc1,T/C,"dose: 100.0 mg/kg/injection, schedule: Q04DX003 (ip), vehicle: saline",105 % of control
same,T/C,"dose: 200.0 mg/kg/injection, schedule: Q04DX003 (ip), vehicle: saline",100 % of control
same,T/C,"dose: 400.0 mg/kg/injection, schedule: Q04DX003 (ip), vehicle: saline",110 % of control
CCOC(=O)C(c1ccccc1)(S(C)(=O)=O)S(C)(=O)=O,T/C,"dose: 12.5 mg/kg/injection, schedule: Q01DX009 (ip), vehicle: saline with Tween-80",108 % of control
same,T/C,[6],112 % of control
same,T/C,[9],104 % of control
O=C(NCCN(C(=O)C(F)(F)F)c1ccc(F)cc1)C(F)(F)F,T/C,[9],100 % of control
same,T/C,[12],100 % of control
same,T/C,[14],101 % of control
Cc1cccc(N2C(=O)C=C(NCc3nc4ccccc4[nH]3)C2c2ccccc2)c1 (stereo not drawn),T/C,[7],104 % of control
same,T/C,[10],100 % of control
same,T/C,[13],100 % of control
O=c1c(O)c(-c2cc(O)c(O)c(O)c2)oc2cc(O)cc(O)c12,T/C,"dose: 6.25 mg/kg/injection, schedule: Q01DX009 (ip), vehicle: Klucel (hydroxypropylcellulose) (HPC)",105 % of control
same,T/C,"dose: 12.5 mg/kg/injection, schedule: Q01DX009 (ip), vehicle: Klucel (hydroxypropylcellulose) (HPC)",112 % of control
same,T/C,"dose: 25.0 mg/kg/injection, schedule: Q01DX009 (ip), vehicle: Klucel (hydroxypropylcellulose) (HPC)",124 % of control
same,T/C,"dose: 100.0 mg/kg/injection, schedule: Q01DX009 (ip), vehicle: other",89 % of control
same,T/C,"dose: 200.0 mg/kg/injection, schedule: Q01DX009 (ip), vehicle: other",98 % of control
CC1=CC2(CC(C)(C)C1)N(c1ccccc1)C(=O)C2(c1ccccc1)c1ccccc1 (stereo not drawn),T/C,[7],91 % of control
same,T/C,[10],91 % of control
same,T/C,[13],87 % of control
O=C1c2cc(I)cc(I)c2NC(O)c2cccn21 (stereo not drawn),T/C,"dose: 0.1 mg/kg/injection, schedule: Q01DX005 (ip), vehicle: water",102 % of control
same,T/C,"dose: 0.2 mg/kg/injection, schedule: Q01DX005 (ip), vehicle: water",98 % of control
same,T/C,"dose: 0.4 mg/kg/injection, schedule: Q01DX005 (ip), vehicle: water",102 % of control
same,T/C,"dose: 0.8 mg/kg/injection, schedule: Q01DX005 (ip), vehicle: water",98 % of control
same,T/C,"dose: 1.6 mg/kg/injection, schedule: Q01DX005 (ip), vehicle: water",99 % of control
same,T/C,"dose: 5.0 mg/kg/injection, schedule: Q01DX005 (ip), vehicle: distilled water + Tween-80",94 % of control
same,T/C,"dose: 10.0 mg/kg/injection, schedule: Q01DX005 (ip), vehicle: distilled water + Tween-80",95 % of control
same,T/C,"dose: 20.0 mg/kg/injection, schedule: Q01DX005 (ip), vehicle: distilled water + Tween-80",102 % of control
same,T/C,"dose: 40.0 mg/kg/injection, schedule: Q01DX005 (ip), vehicle: distilled water + Tween-80",102 % of control
same,T/C,"dose: 80.0 mg/kg/injection, schedule: Q01DX005 (ip), vehicle: distilled water + Tween-80",98 % of control
O=P1(Nc2ccc(Cl)cc2)N(Cc2ccc(Cl)cc2)CCCN1Cc1ccc(Cl)cc1,T/C,[8],93 % of control
same,T/C,[11],92 % of control
same,T/C,[15],98 % of control
O=Nc1cc(S(=O)(=O)O)c2ccccc2c1O,T/C,[9],100 % of control
same,T/C,[12],90 % of control
same,T/C,[14],90 % of control
OB(O)c1ccc(B(O)O)cc1,T/C,[1],104 % of control
same,T/C,[2],103 % of control
same,T/C,[3],95 % of control
same,T/C,"dose: 400.0 mg/kg/injection, schedule: Q01DX009 (ip), vehicle: Klucel (hydroxypropylcellulose) (HPC)",104 % of control
COc1cccc2cc(C)[nH]c12,T/C,[6],97 % of control
same,T/C,[9],97 % of control
same,T/C,[12],103 % of control
COc1ccc(C/C(N)=N\O)cc1,T/C,[1],108 % of control
same,T/C,[2],106 % of control
same,T/C,[3],117 % of control
CC(=O)OCC1OC(CC(=O)c2ccccc2)C=CC1OC(C)=O (stereo not drawn),T/C,"dose: 25.0 mg/kg/injection, schedule: Q01DX005 (ip), vehicle: saline with Tween-80",99 % of control
same,T/C,[8],102 % of control and 101 % of control
same,T/C,[11],100 % of control and 106 % of control
same,T/C,[15],97 % of control and 106 % of control
O=C1C=C\C(=C/C=C\C=C2/C=CC(=O)O2)O1,T/C,[7],93 % of control
same,T/C,[10],100 % of control
same,T/C,[13],96 % of control
O=C(O)c1c(Cl)n(-c2ccccc2)c2c(C(=O)O)cccc12,T/C,"dose: 100.0 mg/kg/injection, schedule: Q01DX001 (ip), vehicle: Klucel (hydroxypropylcellulose) (HPC)",97 % of control
same,T/C,"dose: 200.0 mg/kg/injection, schedule: Q01DX001 (ip), vehicle: Klucel (hydroxypropylcellulose) (HPC)",97 % of control
same,T/C,"dose: 400.0 mg/kg/injection, schedule: Q01DX001 (ip), vehicle: Klucel (hydroxypropylcellulose) (HPC)",97 % of control
COCCCOC(=O)NCCCCC([NH-])C(=O)O.COCCCOC(=O)NCCCCC([NH-])C(=O)O.[Cu+2] (stereo not drawn),T/C,"dose: 6.25 mg/kg/injection, schedule: Q01DX005 (ip), vehicle: Klucel (hydroxypropylcellulose) (HPC)",100 % of control
same,T/C,[4],87 % of control
same,T/C,[5],89 % of control
Cc1ccc(S(=O)(=O)CC(=O)CC(=O)C(=O)Nc2cc(C)ccc2C)cc1,T/C,"dose: 60.0 mg/kg/injection, schedule: Q01DX005 (ip), vehicle: saline with Tween-80",105 % of control
same,T/C,"dose: 120.0 mg/kg/injection, schedule: Q01DX005 (ip), vehicle: saline with Tween-80",108 % of control
same,T/C,"dose: 240.0 mg/kg/injection, schedule: Q01DX005 (ip), vehicle: saline with Tween-80",106 % of control
